# In publication PMC6437697 (Journal of Medicinal Chemistry, 2019):
# Columns and labels:
# Assay in all cases: KINOMEscan
# Assay type in all cases: binding
# Settings in all cases: read-out: % control activity remaining
# FGFR3(G697C) = molecular target: T1, FGFR3(G697C) (Homo sapiens, UniProt P22607, G697C)
# T1 construct: purchased Eurofins DiscoverX KINOMEscan
# CDC2L5 = molecular target: T2, CDC2L5 (Homo sapiens, UniProt Q14004)
# T2 construct: purchased Eurofins DiscoverX KINOMEscan
# CSNK1E = molecular target: T3, CSNK1E (Homo sapiens, UniProt P49674)
# T3 construct: purchased Eurofins DiscoverX KINOMEscan
# NEK10 = molecular target: T4, NEK10 (Homo sapiens, UniProt Q6ZWH5)
# T4 construct: purchased Eurofins DiscoverX KINOMEscan
# T4 sequence (Q6ZWH5 1-1172): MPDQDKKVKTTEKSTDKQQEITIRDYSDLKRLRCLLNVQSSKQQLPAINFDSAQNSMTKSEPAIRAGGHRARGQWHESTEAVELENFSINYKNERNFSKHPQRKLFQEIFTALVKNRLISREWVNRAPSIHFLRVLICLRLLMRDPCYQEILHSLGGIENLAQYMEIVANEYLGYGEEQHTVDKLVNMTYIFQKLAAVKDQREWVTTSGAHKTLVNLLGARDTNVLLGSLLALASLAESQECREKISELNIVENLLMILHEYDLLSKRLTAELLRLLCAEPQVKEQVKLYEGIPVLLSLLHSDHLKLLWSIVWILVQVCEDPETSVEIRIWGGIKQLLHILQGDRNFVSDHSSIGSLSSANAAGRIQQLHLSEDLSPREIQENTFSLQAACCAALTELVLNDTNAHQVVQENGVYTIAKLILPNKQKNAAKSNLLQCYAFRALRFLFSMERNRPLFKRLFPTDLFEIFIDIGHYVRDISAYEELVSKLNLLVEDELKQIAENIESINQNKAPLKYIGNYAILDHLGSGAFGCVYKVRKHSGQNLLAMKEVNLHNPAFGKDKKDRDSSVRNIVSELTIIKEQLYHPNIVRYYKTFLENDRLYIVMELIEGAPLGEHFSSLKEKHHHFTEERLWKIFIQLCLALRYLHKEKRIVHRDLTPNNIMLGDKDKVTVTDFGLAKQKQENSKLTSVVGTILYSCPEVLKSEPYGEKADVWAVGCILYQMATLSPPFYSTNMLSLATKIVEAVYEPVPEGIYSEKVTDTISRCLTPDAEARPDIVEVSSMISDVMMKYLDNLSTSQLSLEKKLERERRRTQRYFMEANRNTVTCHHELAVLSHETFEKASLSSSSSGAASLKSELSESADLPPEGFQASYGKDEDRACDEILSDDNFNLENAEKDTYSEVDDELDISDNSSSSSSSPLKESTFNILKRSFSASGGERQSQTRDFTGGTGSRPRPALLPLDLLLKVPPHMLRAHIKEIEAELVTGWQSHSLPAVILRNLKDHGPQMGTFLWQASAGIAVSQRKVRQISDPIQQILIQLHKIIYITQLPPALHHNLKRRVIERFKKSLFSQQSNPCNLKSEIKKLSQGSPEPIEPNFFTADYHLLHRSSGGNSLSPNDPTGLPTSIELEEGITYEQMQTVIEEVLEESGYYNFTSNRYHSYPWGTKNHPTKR
# FGFR1 = molecular target: T5, FGFR1 (Homo sapiens, UniProt P11362)
# T5 construct: purchased Eurofins DiscoverX KINOMEscan
# ERK4 = molecular target: T6, ERK4 (Homo sapiens, UniProt P31152)
# T6 construct: purchased Eurofins DiscoverX KINOMEscan
# TGFBR2 = molecular target: T7, TGFBR2 (Homo sapiens, UniProt P37173)
# T7 construct: purchased Eurofins DiscoverX KINOMEscan
# ERBB2 = molecular target: T8, ERBB2 (Homo sapiens, UniProt P04626)
# T8 construct: purchased Eurofins DiscoverX KINOMEscan
# MEK4 = molecular target: T9, MEK4 (Homo sapiens, UniProt P45985)
# T9 construct: purchased Eurofins DiscoverX KINOMEscan
# T9 sequence (P45985 1-399): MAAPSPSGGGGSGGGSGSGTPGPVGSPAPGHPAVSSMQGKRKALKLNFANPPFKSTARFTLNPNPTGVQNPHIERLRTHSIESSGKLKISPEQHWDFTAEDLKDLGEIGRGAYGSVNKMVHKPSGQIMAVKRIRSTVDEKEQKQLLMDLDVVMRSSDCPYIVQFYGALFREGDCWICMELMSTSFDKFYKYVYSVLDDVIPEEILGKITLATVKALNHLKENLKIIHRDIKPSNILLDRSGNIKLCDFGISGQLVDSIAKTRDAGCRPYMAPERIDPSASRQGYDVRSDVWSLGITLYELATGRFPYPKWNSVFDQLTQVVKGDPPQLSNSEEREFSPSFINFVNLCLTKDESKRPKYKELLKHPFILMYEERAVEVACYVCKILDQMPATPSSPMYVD
# CSNK1D = molecular target: T10, CSNK1D (Homo sapiens, UniProt P48730)
# T10 construct: purchased Eurofins DiscoverX KINOMEscan
# [1] = molecular target: T11, JAK2(JH1domain-catalytic) (Homo sapiens, UniProt O60674)
# T11 construct: JAK2(JH1domain-catalytic); purchased Eurofins DiscoverX KINOMEscan
# NEK2 = molecular target: T12, NEK2 (Homo sapiens, UniProt P51955)
# T12 construct: purchased Eurofins DiscoverX KINOMEscan
# T12 sequence (P51955 1-445): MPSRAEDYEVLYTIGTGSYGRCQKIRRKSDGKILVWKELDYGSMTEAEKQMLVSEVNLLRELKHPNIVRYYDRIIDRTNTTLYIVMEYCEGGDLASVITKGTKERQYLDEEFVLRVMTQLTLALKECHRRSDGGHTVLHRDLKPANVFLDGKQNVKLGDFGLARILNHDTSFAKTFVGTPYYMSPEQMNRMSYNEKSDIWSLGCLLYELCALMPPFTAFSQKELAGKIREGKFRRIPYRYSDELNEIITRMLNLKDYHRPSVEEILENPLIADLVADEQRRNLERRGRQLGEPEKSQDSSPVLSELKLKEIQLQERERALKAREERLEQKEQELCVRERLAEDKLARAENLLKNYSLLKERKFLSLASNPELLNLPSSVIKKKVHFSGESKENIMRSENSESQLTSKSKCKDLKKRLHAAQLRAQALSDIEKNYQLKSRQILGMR
# PAK6 = molecular target: T13, PAK6 (Homo sapiens, UniProt Q9NQU5)
# T13 construct: purchased Eurofins DiscoverX KINOMEscan
# AMPK-alpha2 = molecular target: T14, AMPK-alpha2 (Homo sapiens, UniProt P54646)
# T14 construct: purchased Eurofins DiscoverX KINOMEscan
# FGFR4 = molecular target: T15, FGFR4 (Homo sapiens, UniProt P22455)
# T15 construct: purchased Eurofins DiscoverX KINOMEscan
# AURKB = molecular target: T16, AURKB (Homo sapiens, UniProt Q96GD4)
# T16 construct: purchased Eurofins DiscoverX KINOMEscan
# HIPK2 = molecular target: T17, HIPK2 (Homo sapiens, UniProt Q9H2X6)
# T17 construct: purchased Eurofins DiscoverX KINOMEscan
# T15 sequence (P22455 22-802): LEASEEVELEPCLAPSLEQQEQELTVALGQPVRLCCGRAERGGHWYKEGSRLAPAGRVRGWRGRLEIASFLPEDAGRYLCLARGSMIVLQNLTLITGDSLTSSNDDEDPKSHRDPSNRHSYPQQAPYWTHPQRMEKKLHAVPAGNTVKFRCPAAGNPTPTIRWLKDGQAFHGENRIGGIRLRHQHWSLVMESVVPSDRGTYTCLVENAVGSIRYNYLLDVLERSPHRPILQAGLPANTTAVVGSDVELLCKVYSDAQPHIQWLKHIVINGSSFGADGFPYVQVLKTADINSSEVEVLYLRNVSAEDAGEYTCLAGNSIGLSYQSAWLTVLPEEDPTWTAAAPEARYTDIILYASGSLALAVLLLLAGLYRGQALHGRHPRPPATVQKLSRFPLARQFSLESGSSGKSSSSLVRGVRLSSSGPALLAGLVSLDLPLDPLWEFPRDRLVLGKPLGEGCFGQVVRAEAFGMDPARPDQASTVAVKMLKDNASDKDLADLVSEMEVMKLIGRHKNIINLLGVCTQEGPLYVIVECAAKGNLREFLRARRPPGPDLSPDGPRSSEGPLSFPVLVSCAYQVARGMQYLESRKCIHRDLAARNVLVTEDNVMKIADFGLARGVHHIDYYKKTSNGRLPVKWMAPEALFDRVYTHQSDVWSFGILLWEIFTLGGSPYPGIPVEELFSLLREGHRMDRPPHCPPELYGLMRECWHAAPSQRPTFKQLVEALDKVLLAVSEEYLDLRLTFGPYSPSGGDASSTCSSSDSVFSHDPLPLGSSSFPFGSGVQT
# T3 sequence (P49674 whole entry): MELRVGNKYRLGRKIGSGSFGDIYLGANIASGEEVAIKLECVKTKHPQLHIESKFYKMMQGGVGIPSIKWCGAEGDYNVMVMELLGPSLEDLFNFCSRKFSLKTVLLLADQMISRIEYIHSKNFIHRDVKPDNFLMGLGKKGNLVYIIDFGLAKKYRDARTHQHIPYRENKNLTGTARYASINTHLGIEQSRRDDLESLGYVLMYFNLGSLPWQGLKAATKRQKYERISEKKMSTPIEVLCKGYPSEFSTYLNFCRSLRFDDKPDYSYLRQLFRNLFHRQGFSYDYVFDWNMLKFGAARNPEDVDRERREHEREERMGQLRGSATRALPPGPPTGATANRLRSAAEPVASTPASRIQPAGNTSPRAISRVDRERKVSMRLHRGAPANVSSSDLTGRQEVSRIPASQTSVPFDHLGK
# T11 sequence (O60674 849-1132 limits assumed): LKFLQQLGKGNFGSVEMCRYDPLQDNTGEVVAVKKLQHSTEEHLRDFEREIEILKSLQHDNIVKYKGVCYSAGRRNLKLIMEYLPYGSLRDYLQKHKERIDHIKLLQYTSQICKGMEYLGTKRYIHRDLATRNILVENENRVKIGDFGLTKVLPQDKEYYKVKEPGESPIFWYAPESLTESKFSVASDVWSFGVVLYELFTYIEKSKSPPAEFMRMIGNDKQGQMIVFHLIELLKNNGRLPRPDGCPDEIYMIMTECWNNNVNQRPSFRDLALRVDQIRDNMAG
# T8 sequence (P04626 23-1255 limits assumed): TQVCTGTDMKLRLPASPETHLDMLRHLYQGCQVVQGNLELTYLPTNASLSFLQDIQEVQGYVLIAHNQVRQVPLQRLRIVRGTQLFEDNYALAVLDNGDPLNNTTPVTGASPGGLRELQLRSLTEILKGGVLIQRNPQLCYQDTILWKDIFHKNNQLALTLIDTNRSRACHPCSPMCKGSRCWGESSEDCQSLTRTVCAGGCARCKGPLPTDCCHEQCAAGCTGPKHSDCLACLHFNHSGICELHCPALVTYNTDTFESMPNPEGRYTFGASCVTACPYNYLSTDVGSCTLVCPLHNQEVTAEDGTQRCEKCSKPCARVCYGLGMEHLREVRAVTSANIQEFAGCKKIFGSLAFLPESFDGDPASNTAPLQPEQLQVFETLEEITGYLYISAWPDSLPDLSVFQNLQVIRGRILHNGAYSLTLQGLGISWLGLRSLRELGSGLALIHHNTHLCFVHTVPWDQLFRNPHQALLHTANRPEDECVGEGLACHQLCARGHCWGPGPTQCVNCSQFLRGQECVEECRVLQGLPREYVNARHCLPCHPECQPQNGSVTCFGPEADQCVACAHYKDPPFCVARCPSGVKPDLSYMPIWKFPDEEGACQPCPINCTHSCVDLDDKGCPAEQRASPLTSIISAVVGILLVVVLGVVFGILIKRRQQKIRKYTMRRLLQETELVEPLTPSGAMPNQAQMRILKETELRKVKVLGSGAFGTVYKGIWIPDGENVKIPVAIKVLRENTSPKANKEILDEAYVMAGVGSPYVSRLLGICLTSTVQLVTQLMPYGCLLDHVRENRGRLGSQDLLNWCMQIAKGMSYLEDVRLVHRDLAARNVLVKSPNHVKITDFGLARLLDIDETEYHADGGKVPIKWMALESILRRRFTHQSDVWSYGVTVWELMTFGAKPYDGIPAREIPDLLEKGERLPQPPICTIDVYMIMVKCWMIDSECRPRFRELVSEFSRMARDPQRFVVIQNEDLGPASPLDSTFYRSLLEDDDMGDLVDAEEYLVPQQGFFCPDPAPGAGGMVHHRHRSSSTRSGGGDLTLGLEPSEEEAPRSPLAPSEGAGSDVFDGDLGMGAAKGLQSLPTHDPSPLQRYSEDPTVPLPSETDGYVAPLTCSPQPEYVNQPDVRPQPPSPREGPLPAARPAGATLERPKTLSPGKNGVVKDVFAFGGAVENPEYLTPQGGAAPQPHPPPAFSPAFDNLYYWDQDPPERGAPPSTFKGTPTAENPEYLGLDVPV
# T13 sequence (Q9NQU5 whole entry): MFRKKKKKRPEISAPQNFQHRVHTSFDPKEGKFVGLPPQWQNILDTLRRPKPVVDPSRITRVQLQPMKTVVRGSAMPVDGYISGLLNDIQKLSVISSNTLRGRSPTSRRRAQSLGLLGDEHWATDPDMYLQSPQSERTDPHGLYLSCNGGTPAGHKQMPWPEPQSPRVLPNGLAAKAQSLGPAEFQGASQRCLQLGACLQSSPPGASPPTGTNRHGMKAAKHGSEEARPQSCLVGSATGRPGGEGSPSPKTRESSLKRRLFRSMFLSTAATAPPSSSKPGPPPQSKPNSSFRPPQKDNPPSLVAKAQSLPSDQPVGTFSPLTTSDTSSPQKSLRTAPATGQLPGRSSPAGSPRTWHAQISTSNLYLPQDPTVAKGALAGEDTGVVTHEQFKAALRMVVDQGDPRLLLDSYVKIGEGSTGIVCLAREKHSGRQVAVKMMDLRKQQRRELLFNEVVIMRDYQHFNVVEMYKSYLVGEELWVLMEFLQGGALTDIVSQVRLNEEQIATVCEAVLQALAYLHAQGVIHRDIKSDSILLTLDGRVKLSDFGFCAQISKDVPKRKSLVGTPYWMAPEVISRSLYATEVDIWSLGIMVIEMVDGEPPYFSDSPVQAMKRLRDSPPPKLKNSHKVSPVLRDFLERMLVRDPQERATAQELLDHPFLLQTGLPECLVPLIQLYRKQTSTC
# T14 sequence (P54646 whole entry): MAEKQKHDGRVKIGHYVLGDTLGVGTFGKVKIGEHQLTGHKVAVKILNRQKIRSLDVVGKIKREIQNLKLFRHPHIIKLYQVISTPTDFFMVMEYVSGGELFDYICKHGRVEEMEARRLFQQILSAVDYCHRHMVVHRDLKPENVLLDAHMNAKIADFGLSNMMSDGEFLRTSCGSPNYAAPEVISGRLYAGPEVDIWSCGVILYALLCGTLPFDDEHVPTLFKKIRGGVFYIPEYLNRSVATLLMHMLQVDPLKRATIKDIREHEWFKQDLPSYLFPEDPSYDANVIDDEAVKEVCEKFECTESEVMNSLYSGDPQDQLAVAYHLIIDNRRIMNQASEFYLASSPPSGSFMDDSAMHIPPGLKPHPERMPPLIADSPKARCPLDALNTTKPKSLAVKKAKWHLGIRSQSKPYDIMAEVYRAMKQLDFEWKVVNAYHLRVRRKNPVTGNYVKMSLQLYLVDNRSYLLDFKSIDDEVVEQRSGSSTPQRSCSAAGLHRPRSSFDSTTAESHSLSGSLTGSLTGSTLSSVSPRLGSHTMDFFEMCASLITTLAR
# T6 sequence (P31152 whole entry): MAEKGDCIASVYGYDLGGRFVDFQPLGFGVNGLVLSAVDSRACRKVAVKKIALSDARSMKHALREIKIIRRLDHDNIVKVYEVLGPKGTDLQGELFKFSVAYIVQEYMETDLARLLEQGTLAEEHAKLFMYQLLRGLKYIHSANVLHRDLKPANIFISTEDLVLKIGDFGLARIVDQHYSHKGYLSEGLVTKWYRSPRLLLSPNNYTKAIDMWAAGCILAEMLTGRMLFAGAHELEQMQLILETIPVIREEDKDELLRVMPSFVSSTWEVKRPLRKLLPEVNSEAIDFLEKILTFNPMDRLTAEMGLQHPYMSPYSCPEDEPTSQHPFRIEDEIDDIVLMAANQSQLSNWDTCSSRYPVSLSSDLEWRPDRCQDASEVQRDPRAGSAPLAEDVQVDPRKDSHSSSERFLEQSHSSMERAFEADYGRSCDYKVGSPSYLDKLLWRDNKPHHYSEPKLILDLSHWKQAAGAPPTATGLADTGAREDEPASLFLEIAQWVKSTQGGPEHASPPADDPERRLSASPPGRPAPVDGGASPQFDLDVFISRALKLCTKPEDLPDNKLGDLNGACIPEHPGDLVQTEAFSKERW
# T10 sequence (P48730 whole entry): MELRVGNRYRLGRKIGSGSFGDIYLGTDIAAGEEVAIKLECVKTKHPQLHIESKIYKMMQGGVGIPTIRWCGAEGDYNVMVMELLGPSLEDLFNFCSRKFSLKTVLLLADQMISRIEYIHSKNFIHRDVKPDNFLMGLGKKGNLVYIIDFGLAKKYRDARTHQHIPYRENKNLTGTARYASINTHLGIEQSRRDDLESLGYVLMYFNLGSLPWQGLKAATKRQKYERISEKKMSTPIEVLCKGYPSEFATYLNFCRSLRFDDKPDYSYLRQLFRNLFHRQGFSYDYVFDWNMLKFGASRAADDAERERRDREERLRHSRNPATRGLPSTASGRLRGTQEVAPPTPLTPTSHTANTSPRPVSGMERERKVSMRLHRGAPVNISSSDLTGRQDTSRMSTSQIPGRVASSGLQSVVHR
SMILES,remaining binding at 1 µM (FGFR3(G697C)) [%],remaining binding at 1 µM (CDC2L5) [%],remaining binding at 1 µM (CSNK1E) [%],remaining binding at 1 µM (NEK10) [%],remaining binding at 1 µM (FGFR1) [%],remaining binding at 1 µM (ERK4) [%],remaining binding at 1 µM (TGFBR2) [%],remaining binding at 1 µM (ERBB2) [%],remaining binding at 1 µM (MEK4) [%],remaining binding at 1 µM (CSNK1D) [%],remaining binding at 1 µM [1] [%],remaining binding at 1 µM (NEK2) [%],remaining binding at 1 µM (PAK6) [%],remaining binding at 1 µM (AMPK-alpha2) [%],remaining binding at 1 µM (FGFR4) [%],remaining binding at 1 µM (AURKB) [%],remaining binding at 1 µM (HIPK2) [%]
"Clc1cc(NCC2CC2)c2ncc(-c3ccc4[nH]ncc4c3)n2n1 [compound 2, 6-Chloro-N-(cyclopropylmethyl)-3-(1H-indazol-5-yl)imidazo[1,2-b]pyridazin-8-amine]",78,92,71,92,99,100,100,100,75,64,91,100,100,94,94,90,62
O=C(CN1CCOCC1)N[C@H]1CC[C@H](Nc2cc(Cl)nn3c(-c4ccc5[nH]ncc5c4)cnc23)CC1 [compound 26],85,84,44,72,94,99,100,97,100,61,99,92,98,92,99,55,0.7
"CN1CCC(CNc2cc(Cl)nn3c(-c4cc5nc(Nc6ccccc6)[nH]c5cc4F)cnc23)CC1 [compound 31, 6-Chloro-3-(6-fluoro-2-(phenylamino)-1H-benzo[d]imidazol-5-yl)-N-((1-methylpiperidin-4-yl)methyl)imidazo[1,2-b]pyridazin-8-amine]",91,96,100,100,87,93,100,84,100,100,100,92,97,99,98,83,85
